Assay results as given in patent US10640457B2, “Histone acetyltransferase activators and uses thereof” (The Trustees of Columbia University in the City of New York, priority 2009, dated 2020).
Values joined by “and” are separate entries in the source; they are usually repeats but may differ in a detail not shown here. Identical values can stand only once. “Also recorded” adds a separate entry of the source.

What was measured:
Aβ-infused mice = test: Contextual and cued fear conditioning in Aβ42-infused mice (TSA); type: in vivo
From the text: HDAC inhibition rescues the defect in associative memory by Aβ elevation. The APP and PS1 transgenes could affect neuronal function through different mechanisms [B23, B24] (each herein incorporated by reference in its entirety), including direct effects by Aβ. Full-length APP and its cleavage products could differently impact H4 acetylation. To separate Aβ effects from other effects of APP and PS1 overexpression, we next determined whether Aβ per se is responsible for the deficit in H4 acetylation observed in our studies on transgenic mice. […] (each herein incorporated by reference in its entirety), we applied a preparation containing oligomeric Aβ42 (200 nM in a volume of […], slowly over 1 min) into dorsal hippocampi (FIG. 24A-B), 15 min prior to training for fear conditioning, with injection of TSA or vehicle (2 mg/kg body weight, 2 hrs prior to training, i.p.). Infusion occurred 5-7 days after implanting cannulas onto dorsal hippocampi. We found no difference in the freezing behavior among the 4 groups of mice during the training phase of the fear conditioning (F3,41=0.04188, p=0.9884, n=8-14/group; FIG. 24C). Twenty-four hours later, freezing behavior was decreased in Aβ-infused mice compared to vehicle-infused mice in the analysis of the contextual learning (F3,41=3.619, p=0.0209, n=8-14/group; FIG. 24C). Freezing in Aβ-infused mice was about 25% that of vehicle-infused mice [Aβ-infused mice: 8.580±2.119% vs. vehicle-infused mice: 31.46±5.373% n=12 and 11 males, respectively; t=3.147, p=0.0049; FIG. 24C].

HDAC5FL = HDAC5FL (Homo sapiens, UniProt Q9UQL6); test: HDAC5FL fluorogenic activity assay; conditions: Repeat1/Repeat2, listed as OA2
YAC128 mice = test: Accelerating rotarod in YAC128 Huntington's Disease mice; type: in vivo; conditions: YF2 5 mg/kg from age 2 months
Protocol: Animals: Mouse models of Huntington's Disease (YAC128) versus wildtype (WT) littermates.
Accelerating Rotarod: This assay is a common assay used to monitor motor coordination in mouse models of Huntington's disease (HD). After a training period to acclimatize the mice to the apparatus, mice are placed on a rod rotating at 5 rpm. Over the test period of 300 sec, the rod increases its rotational speed from 5 rpm to 40 rpm. The time at which the mouse falls off of the rod is recorded. Each mouse is subject to 3 runs per day (shown as a per day average) across 3 days (d1, d2, d3). Typically 8 to 12 mice per group are used in this assay. Both male and female data are shown for age 4 months (FIG. 83A) and 6 months (FIG. 83B).

[1] = Pharmacokinetics and brain penetration, plasma and brain by LC-MS/MS; type: in vivo, BALB/c mice
Protocol: After i.p. and i.v. administration at 20 mg/kg to BALB/c mice, plasma and brain concentrations were determined by LC-MS/MS.

Aβ42-treated slices = test: LTP in Aβ42-treated hippocampal slices (YF2); conditions: 200 nM Aβ42-treated slices; YF2 1 μM for 30 min prior to the θ-burst
Protocol: Next, we checked if YF2 could attenuate synaptic and cognitive dysfunction after Aβ elevation. […] Next, we induced LTP or contextual fear memory as well as reference memory in the presence of oligomeric Aβ42, or vehicle. In the LTP experiments 200 nM Aβ42 or vehicle were perfused through the bath solution for 20 min prior to the application of the θ-burst. In the behavioral experiments 200 nM Aβ42 (in a final volume of 1 μl over 1 min) or vehicle were bilaterally infused 15 min prior to the foot shock or 15 min prior to the 1st trial (for the 1st group of tests in a 2-day radial arm water maze (RAWM) test assessing reference memory^[P34] (herein incorporated by reference in its entirety)) and 15 min prior to the 7th trial (for the 2nd group of tests of the RAWM) into dorsal hippocampus of the animal that had been pre-implanted with a cannula the week before. Aβ reduced LTP and both reference and contextual fear memory (FIG. 66).

Sirtuin 1 = molecular target: T1, Sirtuin 1 (Homo sapiens, UniProt Q96EB6); test: Sirtuin 1 fluorogenic activity assay; conditions: for % Activity: Repeat1/Repeat2, listed as OA2
T1 sequence (Q96EB6 1-747): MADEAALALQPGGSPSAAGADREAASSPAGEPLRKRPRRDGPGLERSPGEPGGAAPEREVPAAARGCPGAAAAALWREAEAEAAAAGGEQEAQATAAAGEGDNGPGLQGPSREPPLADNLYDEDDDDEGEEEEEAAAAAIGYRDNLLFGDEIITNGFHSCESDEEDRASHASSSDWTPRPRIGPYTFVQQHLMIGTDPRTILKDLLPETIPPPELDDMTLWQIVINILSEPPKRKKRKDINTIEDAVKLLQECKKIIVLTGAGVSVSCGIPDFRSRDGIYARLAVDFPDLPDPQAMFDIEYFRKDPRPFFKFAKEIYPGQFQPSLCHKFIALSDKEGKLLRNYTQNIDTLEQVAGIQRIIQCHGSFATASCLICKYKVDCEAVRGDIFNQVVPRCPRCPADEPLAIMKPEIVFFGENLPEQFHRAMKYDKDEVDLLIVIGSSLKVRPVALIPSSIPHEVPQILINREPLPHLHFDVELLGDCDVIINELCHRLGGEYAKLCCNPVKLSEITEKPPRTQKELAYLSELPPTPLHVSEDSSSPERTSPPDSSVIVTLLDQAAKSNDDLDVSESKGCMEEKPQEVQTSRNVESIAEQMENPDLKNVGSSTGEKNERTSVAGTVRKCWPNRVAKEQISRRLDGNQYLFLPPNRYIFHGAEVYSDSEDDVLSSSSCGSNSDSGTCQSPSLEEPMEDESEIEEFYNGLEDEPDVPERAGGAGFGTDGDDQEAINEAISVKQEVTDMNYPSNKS

[2] = IP administration 20 mg/kg, brain
[3] = IV administration 20 mg/kg, brain

Sequence of HDAC5FL (Q9UQL6 whole entry): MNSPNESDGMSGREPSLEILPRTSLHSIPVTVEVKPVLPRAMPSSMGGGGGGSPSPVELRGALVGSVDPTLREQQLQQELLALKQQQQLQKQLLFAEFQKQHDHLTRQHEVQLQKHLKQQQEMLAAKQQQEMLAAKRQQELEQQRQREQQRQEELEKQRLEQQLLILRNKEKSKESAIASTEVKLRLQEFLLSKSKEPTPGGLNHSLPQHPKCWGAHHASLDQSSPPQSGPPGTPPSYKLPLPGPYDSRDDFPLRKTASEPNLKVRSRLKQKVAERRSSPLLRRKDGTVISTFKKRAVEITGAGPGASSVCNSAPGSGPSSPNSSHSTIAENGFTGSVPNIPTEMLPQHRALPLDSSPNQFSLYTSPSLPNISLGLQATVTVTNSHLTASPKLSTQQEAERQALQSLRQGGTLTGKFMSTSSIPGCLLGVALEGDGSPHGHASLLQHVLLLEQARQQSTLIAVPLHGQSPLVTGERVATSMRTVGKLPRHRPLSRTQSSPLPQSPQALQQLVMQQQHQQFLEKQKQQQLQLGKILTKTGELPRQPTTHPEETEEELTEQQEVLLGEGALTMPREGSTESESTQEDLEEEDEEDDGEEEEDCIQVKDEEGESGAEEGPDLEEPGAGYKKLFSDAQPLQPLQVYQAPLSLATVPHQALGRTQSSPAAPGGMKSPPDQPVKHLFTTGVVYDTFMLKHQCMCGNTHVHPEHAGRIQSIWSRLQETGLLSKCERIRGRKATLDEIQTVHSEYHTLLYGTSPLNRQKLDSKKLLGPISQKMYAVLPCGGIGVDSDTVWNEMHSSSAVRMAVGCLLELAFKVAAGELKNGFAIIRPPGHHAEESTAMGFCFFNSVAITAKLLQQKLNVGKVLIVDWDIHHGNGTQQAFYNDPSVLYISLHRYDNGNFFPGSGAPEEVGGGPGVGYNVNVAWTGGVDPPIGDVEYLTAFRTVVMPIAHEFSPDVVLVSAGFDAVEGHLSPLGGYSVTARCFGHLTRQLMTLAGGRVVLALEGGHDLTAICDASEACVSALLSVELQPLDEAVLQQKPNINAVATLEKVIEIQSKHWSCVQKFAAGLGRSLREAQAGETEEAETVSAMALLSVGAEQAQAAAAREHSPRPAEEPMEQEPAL

## CC(/C=C/C(=O)NO)=C\[C@@H](C)C(=O)c1ccc(N(C)C)cc1 [TSA, trichostatin A]
Aβ-infused mice; Aβ-infused mice injected with TSA
  freezing time relative to Aβ-infused mice: about 300%
Aβ-infused mice; TSA i.p. 2 hrs before training
  deficit in freezing responses in Aβ-infused mice: ameliorates
Aβ-infused mice; TSA+Aβ treated mice, TSA 2 mg/kg i.p. 2 hrs prior to training, Aβ42 200 nM
  freezing, contextual fear conditioning 24 hrs after training: 26.17±4.747%
Aβ-infused mice; TSA-treated, vehicle-infused mice
  freezing, contextual fear conditioning 24 hrs after training: 27.01±7.246%
Aβ-infused mice; pre-CS and CS
  cued fear conditioning, freezing among the 4 groups: did not find a difference

## CCOc1cccc(OCCN(C)C)c1C(=O)Nc1ccc(Cl)c(C(F)(F)F)c1 [YF2]
HDAC5FL; OA2 Log[nM] 0.5
  % Activity: 99.80% and 92.90%
HDAC5FL; OA2 Log[nM] 1.0
  % Activity: 102.59% and 97.50%
HDAC5FL; OA2 Log[nM] 1.5
  % Activity: 103.20% and 104.10%
HDAC5FL; OA2 Log[nM] 2.0
  % Activity: 108.64% and 106.80%
HDAC5FL; OA2 Log[nM] 2.5
  % Activity: 108.60% and 107.17%
HDAC5FL; OA2 Log[nM] 3.0
  % Activity: 105.76% and 99.80%
HDAC5FL; OA2 Log[nM] 3.5
  % Activity: 101.30% and 99.30%
HDAC5FL; OA2 Log[nM] 4.0
  % Activity: 104.91% and 104.82%
HDAC5FL; OA2 Log[nM] 4.5
  % Activity: 95.40% and 94.11%
HDAC5FL; OA2 Log[nM] 5.3
  % Activity: 68.63% and 94.13%
YAC128 mice; female mice, 6 months of age
  rotarod performance deficit of YAC128 vs WT mice: significance is lost
YAC128 mice; male mice, 4 months of age
  rotarod performance deficit of YAC128 vs WT mice: significance is lost
[1]; [2]
  AUC0-t: 6493 ng·h/g
  AUC0-∞: 6564 ng·h/g
  F: 29.2%
[1]; IP administration 20 mg/kg, plasma
  F: 41.0%
[1]; [3]
  AUC0-t: 22222 ng·h/g
  AUC0-∞: 22581 ng·h/g
Aβ42-treated slices
  LTP deficit: ameliorated; also recorded: rescues
Sirtuin 1
  IC50: > 200 µM
Sirtuin 1; OA2 Log[nM] 0.5
  % Activity: 94.26% and 99.92%
Sirtuin 1; OA2 Log[nM] 1.0
  % Activity: 87.25% and 99.42%
Sirtuin 1; OA2 Log[nM] 1.5
  % Activity: 100.27% and 87.48%
Sirtuin 1; OA2 Log[nM] 2.0
  % Activity: 97.98% and 92.56%
Sirtuin 1; OA2 Log[nM] 2.5
  % Activity: 101.56% and 100.81%
Sirtuin 1; OA2 Log[nM] 3.0
  % Activity: 108.86% and 94.87%
Sirtuin 1; OA2 Log[nM] 3.5
  % Activity: 96.93% and 100.23%
Sirtuin 1; OA2 Log[nM] 4.0
  % Activity: 96.69% and 89.85%
Sirtuin 1; OA2 Log[nM] 4.5
  % Activity: 98.83% and 93.79%
Sirtuin 1; OA2 Log[nM] 5.3
  % Activity: 99.02% and 100.98%
